Experimental data as given in US20200181284A1, “EPIGENETIC INHIBITORS FOR SENSITIZING HEMATOLOGIC OR OTHER MALIGNANCIES TO GLUCOCORTICOID THERAPY” (UNIVERSITY OF SOUTHERN CALIFORNIA, priority 2017, published 2020).

Tests used:
[1] = test system: G9a and GLP phosphorylation; test: Phosphorylation of HA-hG9a or HA-hGLP in Cos-7 cells (pan ph-T immunoprecipitation); type: cell-based, monkey; settings: 2 μM, 24 h
Experimental: Cos-7 or A549 cells were seeded on 10-cm dishes the day before transfection. Cells were transiently transfected (where indicated) using Lipofectamine 2000 (Invitrogen) with 5 μg each of the indicated plasmids according to the manufacturer's protocol. At 48 h after transfection, cells were treated (or not) with dex for the indicated time period, and cell extracts were prepared in RIPA buffer (50 mM Tris-HCl, pH 8, 150 mM NaCl, 1 mM EDTA, 1% NP-40 and 0.25% deoxycholate) supplemented with protease inhibitor tablets (Roche Molecular Biochemicals) and phosphatase inhibitors (1 mM NaF, 1 mM Na3VO4 and 1 mM β-glycerophosphate). Protein extracts were incubated with 1 μg of the indicated primary antibodies overnight at 4° C. with shaking. Protein A/G Plus Agarose (Santa Cruz sc-2003) beads were added and the mixture was incubated 2 hr at 4° C. The immunoprecipitates were separated on SDS-PAGE. […] In immunoprecipitation experiments 3% of the input of each sample was analyzed by immunoblot using the antibodies listed. […]

[2] = molecular target: T1, endogenous G9a and GLP (Homo sapiens, UniProt Q96KQ7+Q9H9B1); test: Methylation of endogenous G9a and GLP in A549 cells; type: cell-based; settings: 2 μM, 24 h
T1 construct: highlight methylation of endogenous G9a and GLP in A549 cells; endogenous in cells; host or cells: A549
Experimental: Cos-7 or A549 cells were seeded on 10-cm dishes the day before transfection. Cells were transiently transfected (where indicated) using Lipofectamine 2000 (Invitrogen) with 5 μg each of the indicated plasmids according to the manufacturer's protocol. At 48 h after transfection, cells were treated (or not) with dex for the indicated time period, and cell extracts were prepared in RIPA buffer (50 mM Tris-HCl, pH 8, 150 mM NaCl, 1 mM EDTA, 1% NP-40 and 0.25% deoxycholate) supplemented with protease inhibitor tablets (Roche Molecular Biochemicals) and phosphatase inhibitors (1 mM NaF, 1 mM Na3VO4 and 1 mM β-glycerophosphate). Protein extracts were incubated with 1 μg of the indicated primary antibodies overnight at 4° C. with shaking. Protein A/G Plus Agarose (Santa Cruz sc-2003) beads were added and the mixture was incubated 2 hr at 4° C. The immunoprecipitates were separated on SDS-PAGE. […] In immunoprecipitation experiments 3% of the input of each sample was analyzed by immunoblot using the antibodies listed.
The results as shown in FIGS. 24E-1 and 24E-2 highlight methylation of endogenous G9a and GLP in A549 cells. […] Western-Blot quantification was determined relative to input using ChemiDoc MP (Biorad) to measure chemiluminescence from the immunoblots, and the ratio of the IP signal to the input signal was calculated for each sample.

[3] = molecular target: T2, hGLP (Homo sapiens, UniProt Q9H9B1); test: Methylation of HA-hGLP in Cos-7 cells (pan met-K immunoprecipitation/immunoblot); type: cell-based, African green monkey; settings: 2 μM, 24 h
T2 construct: expressed in transfected cells; host or cells: Cos-7
Experimental: Cos-7 or A549 cells were seeded on 10-cm dishes the day before transfection. Cells were transiently transfected (where indicated) using Lipofectamine 2000 (Invitrogen) with 5 μg each of the indicated plasmids according to the manufacturer's protocol. […] Protein extracts were incubated with 1 μg of the indicated primary antibodies overnight at 4° C. with shaking. Protein A/G Plus Agarose (Santa Cruz sc-2003) beads were added and the mixture was incubated 2 hr at 4° C. The immunoprecipitates were separated on SDS-PAGE. […] In immunoprecipitation experiments 3% of the input of each sample was analyzed by immunoblot using the antibodies listed. […]

[4] = test system: lung, breast and glioblastoma cancers; settings: dosages of 5-50 mg/kg; cited from earlier work
[5] = test system: G9a methylation; test: G9a methylation level in NALM6 cells treated with KDM inhibitors; type: cell-based, human
From the text: There are two distinct families of KDM with distinct catalytic mechanisms (FIG. 50B). We tested one inhibitor for each family: OG-L002 inhibits the two members of the LSD family of KDM, and JIB-04 inhibits several members of the large JmjC family of KDM, including members of the KDM2, KDM3, and KDM4 subfamilies. We propose that there is an equilibrium between the enzymes that methylate G9a and GLP (in this case they methylate themselves) and the KDM enzymes to maintain a moderate level of G9a/GLP methylation (FIGS. 50C-1, 50C-2), and that inhibition of the KDMs that normally demethylate G9a and GLP (currently unknown) will increase the level of G9a/GLP methylation and thereby enhance the coactivator activity of G9a/GLP, the GC activation of the cell death genes, and GC-induced cell death in B-ALL cells. Thus, as a first step to identify the G9a/GLP-specific demethylases, we treated NALM6 cells with the two inhibitors named above. OG-L002 had no effect on the level of G9a methylation, but JIB-04 increased the level of G9a methylation in NALM6 cells (FIG. 50D).

T2 sequence (Q9H9B1 whole entry): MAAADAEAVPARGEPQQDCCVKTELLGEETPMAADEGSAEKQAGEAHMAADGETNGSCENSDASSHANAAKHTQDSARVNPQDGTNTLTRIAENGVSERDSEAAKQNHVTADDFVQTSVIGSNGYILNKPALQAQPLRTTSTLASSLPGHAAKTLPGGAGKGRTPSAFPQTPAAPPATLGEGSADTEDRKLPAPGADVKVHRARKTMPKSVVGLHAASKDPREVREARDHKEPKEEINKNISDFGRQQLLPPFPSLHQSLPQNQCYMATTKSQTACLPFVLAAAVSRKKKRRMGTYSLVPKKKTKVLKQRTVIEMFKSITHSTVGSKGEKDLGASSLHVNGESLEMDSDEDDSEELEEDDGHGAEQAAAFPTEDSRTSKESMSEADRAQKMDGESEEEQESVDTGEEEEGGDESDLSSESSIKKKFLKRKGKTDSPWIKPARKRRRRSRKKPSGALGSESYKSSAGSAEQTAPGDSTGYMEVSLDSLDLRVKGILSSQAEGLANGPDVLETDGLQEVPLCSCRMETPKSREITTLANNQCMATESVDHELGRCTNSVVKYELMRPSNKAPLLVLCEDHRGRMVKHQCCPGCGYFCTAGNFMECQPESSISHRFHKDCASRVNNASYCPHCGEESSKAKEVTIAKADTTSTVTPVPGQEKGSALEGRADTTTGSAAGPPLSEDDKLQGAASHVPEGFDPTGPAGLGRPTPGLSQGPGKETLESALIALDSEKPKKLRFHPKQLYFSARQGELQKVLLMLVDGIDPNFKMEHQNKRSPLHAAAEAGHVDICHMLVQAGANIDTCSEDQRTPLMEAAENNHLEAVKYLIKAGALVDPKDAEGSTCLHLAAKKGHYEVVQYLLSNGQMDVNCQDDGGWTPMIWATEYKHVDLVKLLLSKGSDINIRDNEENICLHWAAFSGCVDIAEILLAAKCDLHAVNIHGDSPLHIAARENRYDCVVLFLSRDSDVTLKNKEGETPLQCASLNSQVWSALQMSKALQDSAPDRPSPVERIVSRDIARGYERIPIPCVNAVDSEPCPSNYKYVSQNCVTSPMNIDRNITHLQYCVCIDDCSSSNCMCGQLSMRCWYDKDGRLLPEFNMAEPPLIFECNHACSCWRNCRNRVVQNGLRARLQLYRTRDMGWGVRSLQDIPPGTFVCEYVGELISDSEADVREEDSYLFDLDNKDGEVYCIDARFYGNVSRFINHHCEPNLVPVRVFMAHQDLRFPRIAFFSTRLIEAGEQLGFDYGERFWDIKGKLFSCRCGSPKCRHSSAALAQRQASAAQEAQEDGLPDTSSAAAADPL

## COc1cc2c(Nc3ccc(NC(=O)c4ccccc4)cc3)ncnc2cc1OCCCN1CCOCC1 [ZM447439, N-[4-[[6-methoxy-7-(3-morpholin-4-ylpropoxy)quinazolin-4-yl]amino]phenyl]benzamide]
[1]
  G9a and GLP phosphorylation signals: decreased

## COc1cc2c(NC3CCN(C4CCCCC4)CC3)nc(N3CCCN(C(C)C)CC3)nc2cc1OCCCN1CCCCC1 [UNC0646]
[2]
  endogenous level of G9a and GLP: increased
  proportion of G9a and GLP that was methylated: decreased substantially
[3]
  GLP methylation in cells: reduced

## Clc1ccc(N/N=C(\c2ccccc2)c2ccccn2)nc1 [JIB-04, 5-chloro-N-[(E)-[phenyl(pyridin-2-yl)methylidene]amino]pyridin-2-amine]
[4]
  efficacy in mouse xenograft models: effective
[5]
  level of G9a methylation: increased
